Laboratory results as given in patent publication US20210186905A1, “ENHANCING T-CELL FUNCTION AND TREATING A T-CELL DYSFUNCTIONAL DISORDER WITH A COMBINATION OF AN LSD INHIBITOR AND A PD-1 BINDING ANTAGONIST” (EpiAxis Therapeutic Pty Ltd, priority 2017, published 2021).
Structures can show the parent of a compound that is named as a salt.

Experiments:
[1] = target: LSD1 (Homo sapiens, UniProt O60341); conditions: MDA-MB-231; TNFI of LSD1p and H3k4me2
Procedure: (§1) A. MDA-MB-231 breast cancer cell line was treated with increasing doses of phenelzine sulfate (phenelzine). Immunofluorescence microscopy was performed on cells fixed and probed with primary anti-LSD1s111p and anti-H3k4me2 and DAPI. Representative images for each dataset are shown. Graph represents the TNFI values for LSD1p and H3k4me2 measured using ImageJ to select the nucleus minus background (n>20 individual cells). B. The effect of phenelzine sulfate on cell proliferation of MDA-MB-231 cells was analyzed using the WST-1 proliferation assay

[2] = tested on: MDA-MB-231 breast cancer cell line
Procedure: as §1

[3] = tested on: LSD1p, CSV and ALDH1A; experiment: Immunofluorescence of FFPE tissue, metastatic lesions in lung or liver of 4T1 mice; format: in vivo, mouse
Procedure: FIG. 3 is a photographic and graphical representation showing that dual epigenetic-immunotherapy inhibits metastatic progression in 4T1 Mouse model. A. 4T1 Treatment FFPE from each treatment group (Group A=Control, Group C: PD1 (10 mg/kg), Group D: Phenelzine (40 mg/kg), Group F: PD1+Phenelzine) and for each target organ (Lung and Liver) was processed for 3D high resolution microscopy using the BondRX. FFPE tissues were fixed and Immunofluorescence microscopy was performed probing with rabbit LSD1(S111p); mouse anti CSV and goat anti […] and visualized with a donkey anti-rabbit AF 488, anti-mouse 568 and anti-goat 633. Cover slips were mounted on glass microscope slides with ProLong Diamond Antifade reagent (Life Technologies). Protein targets were localized by confocal laser scanning microscopy. Single 0.5 μm sections were obtained using a Leica DMI8 microscope using 100× oil immersion lens running LAX software. The final image was obtained by averaging four sequential images of the same section. Digital images were analyzed using ImageJ software (ImageJ, NIH, Bethesda, Md., USA) to determine the either the Total Nuclear Fluorescent Intensity (TNFI), the Total Cytoplasmic Fluorescent Intensity (TCFI) or total Fluorescent Intensity (TFI). N=40 cells were counted. B. Graphs for both organs are presented here. Graphs represent the TNFI values for LSD1, ALDH1A and TCFI for CSV measured using ImageJ to select the nucleus minus background. Representative images for the Lung dataset are shown.
The expression of a mesenchymal, stem-like biomarker panel was examined in metastatic sites in a 4T1 mouse model treated with vehicle control (Group A), anti-PD1 antibody (10 mg/kg) (Group C), phenelzine sulfate (40 mg/kg) (Group D) or a combination of both (Group F). The present inventors examined the presence of metastatic lesions in the lung or liver and measured the immunofluorescence (IF) of formalin-fixed paraffin-embedded (FFPE) tissue examining the IF intensity of LSD1p, CSV and ALDH1A.
4T1 Treatment FFPE from each treatment group primary tumor biopsies were processed in the BondRX for IFA staining using the instrument protocol: ER2 for 20 mins at 100° C. with Epitope Retrieval Solution 2 which is a pH-9 EDTA based retrieval solution followed by probing with rabbit anti LSD1 (S111p); mouse anti CSV and goat anti ALDH1A and visualized with a donkey anti-rabbit AF 488, anti-mouse 568 and anti-goat 633 or anti rat 633. Cover slips were mounted on glass microscope slides with ProLong Diamond Antifade reagent (Life Technologies). Protein targets were localized by confocal laser scanning microscopy. Single 0.5 μm sections were obtained using a Leica DMI8 microscope using 100× oil immersion lens running LAX software. The final image was obtained by averaging four sequential images of the same section. Digital images were analysed using ImageJ software (ImageJ, NIH, Bethesda, Md., USA) to determine the either the Total Nuclear Fluorescent Intensity (TNFI), the Total Cytoplasmic Fluorescent Intensity (TCFI) or total Fluorescent Intensity (TFI).

[4] = tested on: CD4+ and CD8+ T-cells; experiment: Flow cytometry, intracellular staining of IFN-γ, IL-2 and TNF-α after PMA/ionomycin; format: in vivo, mouse
Procedure: FIG. 5 is a graphical representation showing that dual epigenetic-immunotherapy re-educates and re-programs the T-cell repertoire. A. Cells stimulated with PMA/ionomycin for 4 hours in the presence of Brefeldin A. Cells were surfaced stained with CD45, CD3, CD4, CD8, CD44, CD62L (for naïve, effector and central memory), CD25 and FoxP3 (for Tregs) and analyzed via Flow cytometry. A Mann-Whitney non-parametric t-test was used to compare control vs other groups (*p<0.05, n=2-5). […] Representative images for each dataset are shown. TNFI values for EOMES, TBET and Ki67 measured using Image) to select the nucleus minus background. Graphs represent the % change of expression relative to control group for CD8^+ T-cells. (n>20 individual cells, Group A=Control, Group C: PD1 (10 mg/kg), Group D: Phenelzine (40 mg/kg), Group F: PD1+Phenelzine). C. Cells stimulated with PMA/ionomycin for 4 hours in the presence of Brefeldin A. Cell were surfaced stained with CD45, CD3, CD4, CD8 and intracellular staining of IFN-γ, IL-2 and TNF-α in the presence of Brefeldin A and analyzed via flow cytometry. A Mann-Whitney non-parametric t-test was used to compare control vs other groups (*p<0.05, **p<0.008; n=2-5). […] Representative images for each dataset are shown. TNFI values for TNFα and IFNγ measured using ImageJ to select the nucleus minus background. Graphs represent the % change of expression relative to control group for CD8^+ T-cells. […]
Cells were surfaced stained with CD49b, F4/80 and intracellular stained for IFN-γ, TNF-α and IL-10. To label NK cells and the macrophages (M1/M2) in the tumor microenvironment or a suite of antibodies to label CD8^+ T-Cells (Cells were surfaced stained with CD45, CD3, CD4, CD8, CD44, CD62L (for naïve, effector and central memory). Cells were finally resuspended in PBS 2% FBS and flow cytometry performed on FACS Fortessa (BD) or FACS LSRII (BD). Analysis of data was done using FlowJo® analysis software and % cell populations calculated from the raw data. A Mann-Whitney non-parametric t-test was used to compare control vs other groups.

`NNCCc1ccccc1` (racemic) [phenelzine sulfate, (±)-2-phenylethylhydrazine] was tested. Which “nuclear axis of LSD1, as measured by H3k4me2 de-methylation” value [1] did it give?
Its value is “inhibited”.

And the “proliferation of MDA-MB-231, as measured by the WST-1 assay” value [2]?
Its value is “inhibiting the proliferation”.

What about the ALDH1A expression ([3]; liver lesions) of the same compound?
The ALDH1A expression was “strongly inhibited”.

And the CSV expression ([3]; liver lesions)?
Its CSV expression is “strongly inhibited”.

And the “LSD1p IF intensity” value ([3]; liver lesions)?
The value was “strongly inhibited”.

What about the ALDH1A expression ([3]; lung lesions) of the same compound?
Its ALDH1A expression is “strongly inhibited”.

And the CSV expression ([3]; lung lesions)?
The CSV expression was “strongly inhibited”.

What about the “LSD1p IF intensity” value ([3]; lung lesions) of the same compound?
The value was “strongly inhibited”.

What about the “IL-2 production by CD4+ T-cells” value ([4]; CD4+ T-cells) of the same compound?
Its value is “much more efficient”.

And the “pro-inflammatory/Th1 response (IFN-γ, IL-2 and TNF-α)” value ([4]; CD4+ and CD8+ T-cells, compared to the control)?
Its value is “better pro-inflammatory/Th1 response”.

What about the “production of these cytokines (IFN-γ, IL-2, TNF-α)” value ([4]; as compared to the control) of the same compound?
The value was “seems to increase”.
